Assay results taken from US12419877B2, “Solid forms of {[5-(3-chlorophenyl)-3-hydroxypyridine-2-carbonyl]amino}acetic acid, compositions, and uses thereof” (Akebia Therapeutics, Inc., priority 2013, dated 2025).
Converted amounts (≈) assume the structure as drawn. Read-outs that look alike come from different tables or passages of the source.

Test: Solubility experiments (approximate solubility by solvent aliquot addition)
Type: physicochemical
Conditions: thermodynamic from solid
Procedure: Approximately 20 mg of Form A of Compound (1) was placed in each of 48 vials and 5 volume aliquots of the appropriate solvent systems were added to the appropriate vial. Between each addition, the mixture was checked for dissolution and if no dissolution was apparent, the mixture was warmed to ca. 50° C. and checked again. This procedure was continued until dissolution was observed or until 100 volumes of solvent had been added.

solubility (organic solvent or mixture, Solvent: Diethyl ether, RT (ca. 22° C.), read-out: Solubility (mg/mL) RT (ca. 22° C.)): < 10 mg/mL | solubility (organic solvent or mixture, Solvent: Diethyl ether, ca. 50° C., read-out: Solubility (mg/mL) (ca. 50° C.)): 10 mg/mL (≈ 32.6 mM) | solubility (organic solvent or mixture, Solvent: Diisopropyl ether (DIPE), RT (ca. 22° C.), read-out: Solubility (mg/mL) RT (ca. 22° C.)): < 10 mg/mL | solubility (organic solvent or mixture, Solvent: Diisopropyl ether (DIPE), ca. 50° C., read-out: Solubility (mg/mL) (ca. 50° C.)): < 10 mg/mL | solubility (organic solvent or mixture, Solvent: Dimethyl sulfoxide (DMSO), RT (ca. 22° C.), read-out: Solubility (mg/mL) RT (ca. 22° C.)): > 200 mg/mL | solubility (organic solvent or mixture, Solvent: Dimethyl sulfoxide (DMSO), ca. 50° C., read-out: Solubility (mg/mL) (ca. 50° C.)): > 200 mg/mL | solubility (organic solvent or mixture, Solvent: Dimethylacetamide (DMA), RT (ca. 22° C.), read-out: Solubility (mg/mL) RT (ca. 22° C.)): > 200 mg/mL | solubility (organic solvent or mixture, Solvent: Dimethylacetamide (DMA), ca. 50° C., read-out: Solubility (mg/mL) (ca. 50° C.)): > 200 mg/mL | solubility (organic solvent or mixture, Solvent: Dimethylformamide (DMF), RT (ca. 22° C.), read-out: Solubility (mg/mL) RT (ca. 22° C.)): > 200 mg/mL | solubility (organic solvent or mixture, Solvent: Dimethylformamide (DMF), ca. 50° C., read-out: Solubility (mg/mL) (ca. 50° C.)): > 200 mg/mL | solubility (organic solvent or mixture, Solvent: EtOAc/Cyclohexane (1:2), ca. 50° C., read-out: Solubility (mg/mL) (ca. 50° C.)): < 10 mg/mL | solubility (organic solvent or mixture, Solvent: EtOAc/Toluene (1:2), RT (ca. 22° C.), read-out: Solubility (mg/mL) RT (ca. 22° C.)): < 14 mg/mL | solubility (organic solvent or mixture, Solvent: EtOAc/Toluene (1:2), ca. 50° C., read-out: Solubility (mg/mL) (ca. 50° C.)): 14 mg/mL (≈ 45.6 mM) | solubility (organic solvent or mixture, Solvent: Ethanol (EtOH), RT (ca. 22° C.), read-out: Solubility (mg/mL) RT (ca. 22° C.)): 34 mg/mL (≈ 111 mM) | solubility (organic solvent or mixture, Solvent: Ethanol (EtOH), ca. 50° C., read-out: Solubility (mg/mL) (ca. 50° C.)): > 34 mg/mL | solubility (organic solvent or mixture, Solvent: Ethyl acetate (EtOAc), RT (ca. 22° C.), read-out: Solubility (mg/mL) RT (ca. 22° C.)): < 41 mg/mL | solubility (organic solvent or mixture, Solvent: Ethyl acetate (EtOAc), ca. 50° C., read-out: Solubility (mg/mL) (ca. 50° C.)): 41 mg/mL (≈ 134 mM) | solubility (organic solvent or mixture, Solvent: Ethylene glycol, RT (ca. 22° C.), read-out: Solubility (mg/mL) RT (ca. 22° C.)): < 10 mg/mL | solubility (organic solvent or mixture, Solvent: Ethylene glycol, ca. 50° C., read-out: Solubility (mg/mL) (ca. 50° C.)): < 10 mg/mL | solubility (organic solvent or mixture, Solvent: Heptane, RT (ca. 22° C.), read-out: Solubility (mg/mL) RT (ca. 22° C.)): < 10 mg/mL | solubility (organic solvent or mixture, Solvent: Heptane, ca. 50° C., read-out: Solubility (mg/mL) (ca. 50° C.)): < 10 mg/mL | solubility (organic solvent or mixture, Solvent: Isobutyl acetate (iBuOAc), RT (ca. 22° C.), read-out: Solubility (mg/mL) RT (ca. 22° C.)): < 20 mg/mL | solubility (organic solvent or mixture, Solvent: Isobutyl acetate (iBuOAc), ca. 50° C., read-out: Solubility (mg/mL) (ca. 50° C.)): 20 mg/mL (≈ 65.2 mM) | solubility (organic solvent or mixture, Solvent: Isopropyl acetate (iPrOAc), RT (ca. 22° C.), read-out: Solubility (mg/mL) RT (ca. 22° C.)): < 26 mg/mL | solubility (organic solvent or mixture, Solvent: Isopropyl acetate (iPrOAc), ca. 50° C., read-out: Solubility (mg/mL) (ca. 50° C.)): 26 mg/mL (≈ 84.8 mM) | solubility (organic solvent or mixture, Solvent: MeOH/Water (1%), RT (ca. 22° C.), read-out: Solubility (mg/mL) RT (ca. 22° C.)): < 40 mg/mL | solubility (organic solvent or mixture, Solvent: MeOH/Water (1%), ca. 50° C., read-out: Solubility (mg/mL) (ca. 50° C.)): 40 mg/mL (≈ 130 mM) | solubility (organic solvent or mixture, Solvent: MeOH/Water (20%), RT (ca. 22° C.), read-out: Solubility (mg/mL) RT (ca. 22° C.)): < 10 mg/mL | solubility (organic solvent or mixture, Solvent: Methanol (MeOH), RT (ca. 22° C.), read-out: Solubility (mg/mL) RT (ca. 22° C.)): < 51 mg/mL | solubility (organic solvent or mixture, Solvent: Methanol (MeOH), ca. 50° C., read-out: Solubility (mg/mL) (ca. 50° C.)): 51 mg/mL (≈ 166 mM) | solubility (organic solvent or mixture, Solvent: Methyl acetate (MeOAc), RT (ca. 22° C.), read-out: Solubility (mg/mL) RT (ca. 22° C.)): < 68 mg/mL | solubility (organic solvent or mixture, Solvent: Methyl acetate (MeOAc), ca. 50° C., read-out: Solubility (mg/mL) (ca. 50° C.)): 68 mg/mL (≈ 222 mM) | solubility (organic solvent or mixture, Solvent: Methyl ethyl ketone (MEK), RT (ca. 22° C.), read-out: Solubility (mg/mL) RT (ca. 22° C.)): < 100 mg/mL | solubility (organic solvent or mixture, Solvent: Methyl ethyl ketone (MEK), ca. 50° C., read-out: Solubility (mg/mL) (ca. 50° C.)): 100 mg/mL (≈ 326 mM) | solubility (organic solvent or mixture, Solvent: Methyl isobutyl ketone (MIBK), RT (ca. 22° C.), read-out: Solubility (mg/mL) RT (ca. 22° C.)): < 34 mg/mL | solubility (organic solvent or mixture, Solvent: Methyl isobutyl ketone (MIBK), ca. 50° C., read-out: Solubility (mg/mL) (ca. 50° C.)): 34 mg/mL (≈ 111 mM) | solubility (organic solvent or mixture, Solvent: N-methyl-2-pyrrolidone (NMP), RT (ca. 22° C.), read-out: Solubility (mg/mL) RT (ca. 22° C.)): > 200 mg/mL | solubility (organic solvent or mixture, Solvent: N-methyl-2-pyrrolidone (NMP), ca. 50° C., read-out: Solubility (mg/mL) (ca. 50° C.)): > 200 mg/mL | solubility (organic solvent or mixture, Solvent: Nitromethane, RT (ca. 22° C.), read-out: Solubility (mg/mL) RT (ca. 22° C.)): < 10 mg/mL | solubility (organic solvent or mixture, Solvent: Nitromethane, ca. 50° C., read-out: Solubility (mg/mL) (ca. 50° C.)): < 10 mg/mL | solubility (organic solvent or mixture, Solvent: Tetrahydrofuran (THF), RT (ca. 22° C.), read-out: Solubility (mg/mL) RT (ca. 22° C.)): > 200 mg/mL | solubility (organic solvent or mixture, Solvent: Tetrahydrofuran (THF), ca. 50° C., read-out: Solubility (mg/mL) (ca. 50° C.)): > 200 mg/mL | solubility (organic solvent or mixture, Solvent: Toluene, RT (ca. 22° C.), read-out: Solubility (mg/mL) RT (ca. 22° C.)): < 10 mg/mL | solubility (organic solvent or mixture, Solvent: Toluene, ca. 50° C., read-out: Solubility (mg/mL) (ca. 50° C.)): < 10 mg/mL | solubility (organic solvent or mixture, Solvent: Trifluoroethanol (TFE), RT (ca. 22° C.), read-out: Solubility (mg/mL) RT (ca. 22° C.)): < 10 mg/mL | solubility (organic solvent or mixture, Solvent: Trifluoroethanol (TFE), ca. 50° C., read-out: Solubility (mg/mL) (ca. 50° C.)): < 10 mg/mL | solubility (organic solvent or mixture, Solvent: methyl tert-butyl ether (MTBE), RT (ca. 22° C.), read-out: Solubility (mg/mL) RT (ca. 22° C.)): 14 mg/mL (≈ 45.6 mM) | solubility (organic solvent or mixture, Solvent: methyl tert-butyl ether (MTBE), ca. 50° C., read-out: Solubility (mg/mL) (ca. 50° C.)): > 14 mg/mL | solubility (Solvent: Water, RT (ca. 22° C.), read-out: Solubility (mg/mL) RT (ca. 22° C.)): < 10 mg/mL | solubility (Solvent: Water, ca. 50° C., read-out: Solubility (mg/mL) (ca. 50° C.)): < 10 mg/mL
SMILES: O=C(O)CNC(=O)c1ncc(-c2cccc(Cl)c2)cc1O [Form A of Compound (I), {[5-(3-chlorophenyl)-3-hydroxypyridine-2-carbonyl]amino}acetic acid]
